Measurements from publication PMC11993918, “Flipped binding modes for the same agonist in closely related neuropeptide-gated ion channels” (Biophysical Journal, 2025).
Values joined by “and” are separate entries in the source; they are usually repeats but may differ in a detail not shown here. Equal entries are not always repeated. “Also recorded” adds a separate entry of the source. Where two headings read alike, the source gives them in different places. No end group written: not given here.

Experiments:
[1] = target: Malacoceros fuliginosus FaNaC1, wild type (Malacoceros fuliginosus)
[2] = tested on: A. kurodai FaNaC; test: Two-electrode voltage clamp of oocytes expressing A. kurodai FaNaC; assay type: cell-based, Aplysia kurodai; details: for peptide potency/activity compared to FMRFa (in words): Fig. 2 A
Excerpt: (§1) A. kurodai FaNaC (NCBI GenBank: AB206707.1) and M. fuliginosus FaNaC1 (NCBI GenBank: ON156825.1) cDNAs in tailored pSP64 plasmid vectors including Xenopus laevis UTRs and poly(A) sequences have been described at length previously ([9],[16]). A. kurodai FaNaC F188Y, F188tag (amber stop codon), F453Y, and F453tag mutants were generated by site-directed mutagenesis as detailed in ([17]) with custom primers (Merck) and PCR with Phusion High-Fidelity DNA polymerase (Thermo Fisher). All coding sequences were confirmed by Sanger sequencing (Genewiz). Plasmid DNA was linearized by digesting with EcoRI (Thermo Fisher) and purified with the DNA Clean & Concentrator Kit (Zymo). mRNA was then transcribed using the mMESSAGE mMACHINE SP6 Transcription Kit (Thermo Fisher) and purified with the RNeasy Mini Kit (Qiagen).
(§2) X. laevis frog oocytes were shipped from Ecocyte Bioscience, Germany, and stored at 18°C in 50% Leibovitz’s L-15 medium (Gibco) supplemented with additional 0.25 mg/mL gentamicin, 1 mM L-glutamine, and 15 mM HEPES, pH 7.6.
(§3) For wild-type (WT) and conventional mutant channels, oocytes were injected with 40 nL of 120 ng/μL FaNaC mRNA via glass micropipettes backfilled with mineral oil, using a Nanoliter2010 injector (World Precision Instruments). For the expression of noncanonical mutant channels, aminoacylated tRNA was first resuspended in 2 μL of water and deprotected by 5 min in UV light via a fan-cooled coil of 365-nm realUV LED strip lights (Waveform Lighting). Deprotected aminoacylated tRNA was then mixed 2:1 with 700 ng/μL UAG mutant FaNaC mRNA, and 40 nL of this mix was injected into oocytes.
(§4) Two-electrode voltage clamp experiments were performed 24–36 h after injection. The oocyte was placed in an RC-3Z bath (Warner Instruments) and perfused continuously with ND96 solution (NaCl 96 mM, KCl 2 mM, CaCl2 1.8 mM, MgCl2 1 mM, HEPES 5 mM, pH 7.5 with NaOH). In experiments without Ca^2+, CaCl2 was replaced with BaCl2, and oocytes were injected with 40 nL of water or 25 mM EGTA 10–45 min before recording. In experiments probing increased Ca^2+ concentrations, extracellular solutions contained NaCl 140 mM, HEPES 10 mM, CaCl2 1 mM, pH 7.5 with NaOH; or NMDG-Cl 126.5 mM, HEPES 10 mM, CaCl2 10 mM, pH 7.5 with NaOH (leaving a small amount of Na^+ in the final solution), based on previous work ([21]). ND96 (or the latter solutions) alone or containing peptides was rapidly exchanged via a VCS-8 pinch-valve control perfusion system (Warner Instruments). […] Oocytes were clamped at −80 mV for all experiments with an Oocyte Clamp OC-725D amplifier (Warner Instruments) and Axon Digidata 1550B digitizer ([…]). Data were recorded at 1000 Hz and filtered at 100–200 Hz. 50 Hz noise was eliminated with a Hum Bug (Digitimer). In measuring reversal potentials in normal and high Ca^2+ solutions, 150 ms voltage ramps from −80 mV to 80 mV were applied continuously, before and during FMRFa application. The resulting “current ramp” in the absence of FMRFa was subtracted from that during peak FMRFa-gated current to plot the FMRFa-induced current-voltage relationship.
(§5) Current amplitude was measured in Clampfit 11.1 (Molecular Devices), and subsequent data analyses were performed in Prism v9 (GraphPad Software). For peptide concentration-response data, peak current amplitude was normalized to maximum, plotted against peptide concentration, and fitted with four-parameter nonlinear regression (Prism v9) for each oocyte. These were averaged to give the reported means ± SE in the main text. For display in figures, a single fit to the average normalized responses (±SE) is shown. […] Therefore, in most M. fuliginosus/LMRFa experiments only, just two LMRFa applications were used: one test concentration and one 10 μM for normalization. This yielded n = 3 oocytes for responses to different concentrations, against which a single curve was fitted and half-maximal effective concentration (EC50) was calculated. […]

[3] = tested on: M. fuliginosus FaNaC1; test: Two-electrode voltage clamp of oocytes expressing M. fuliginosus FaNaC1; assay type: cell-based, Malacoceros fuliginosus; details: for peptide potency/activity compared to FMRFa (in words): Fig. 2 A
Excerpt: as §1, §2, §3, §4, §5

[4] = tested on: clade 1 FaNaCs; details: cited from earlier work; for sensitivity to native peptides (in words): extant clade 1 FaNaCs ref 9,27
[5] = tested on: A. kurodai FaNaC F453Cha; test: Two-electrode voltage clamp, nonsense suppression mutant F453Cha; assay type: cell-based, Aplysia kurodai
Excerpt: as §1
(§6) Noncanonical amino acids were incorporated into positions F188 and F453 of A. kurodai FaNaC via a nonsense suppression approach using an amber stop codon (TAG/UAG) and modified Tetrahymena thermophila Gln73 tRNA (THG73) ([19],[20]). […]
(§7) Two-electrode voltage clamp experiments were performed 24–36 h after injection. […] Data were recorded at 1000 Hz and filtered at 100–200 Hz. […]
(§8) Current amplitude was measured in Clampfit 11.1 (Molecular Devices), and subsequent data analyses were performed in Prism v9 (GraphPad Software). […]

[6] = tested on: A. kurodai FaNaC F453hPhe; test: Two-electrode voltage clamp, nonsense suppression mutant F453hPhe; assay type: cell-based, Aplysia kurodai
Excerpt: as §1, §6, §7, §8

[7] = tested on: clade 2 FaNaCs; details: extant clade 2 FaNaCs ref 9,23,27; cited from earlier work
[8] = tested on: Helix aspersa FaNaC; parameters: method as in PMID 9343851; details: stated as shared by A. kurodai FaNaC and H. aspersa FaNaC ref 27; cited from earlier work
[9] = tested on: M. fuliginosus FaNaC1 F129 A/L/Q mutants; parameters: method as in PMID 38337033; details: conventional F129 A/L/Q mutants ref 15; cited from earlier work
[10] = tested on: A. kurodai FaNaC F188Cha; test: Two-electrode voltage clamp, nonsense suppression mutant F188Cha; assay type: cell-based, Aplysia kurodai; details: concentrations up to 100 μM
Excerpt: as §1, §6, §7, §8

[11] = tested on: A. kurodai FaNaC F188hPhe; test: Two-electrode voltage clamp, nonsense suppression mutant F188hPhe; assay type: cell-based, Aplysia kurodai; details: concentrations up to 100 μM
Excerpt: as §1, §6, §7, §8

[12] = tested on: M. fuliginosus FaNaC1 position α3-F129 UAG mutant; test: Two-electrode voltage clamp, nonsense suppression at F129 (UAG mutant mRNA and phenylalaninylated tRNA); assay type: cell-based, Malacoceros fuliginosus; details: UAG mutant mRNA and phenylalaninylated tRNA (not shown)
[13] = tested on: A. kurodai FaNaC F188Phe; test: Two-electrode voltage clamp, nonsense suppression mutant F188Phe; assay type: cell-based, Aplysia kurodai
Excerpt: as §1, §6, §7, §8

[14] = tested on: A. kurodai FaNaC F453Y; test: Two-electrode voltage clamp, conventional mutant F453Y; assay type: cell-based, Aplysia kurodai
Excerpt: as §1, with “(Qiagen). […]” for “(Qiagen).”
as §7
(§9) Current amplitude was measured in Clampfit 11.1 (Molecular Devices), and subsequent data analyses were performed in Prism v9 (GraphPad Software). […] This yielded n = 3 oocytes for responses to different concentrations, against which a single curve was fitted and half-maximal effective concentration (EC50) was calculated. […]

[15] = tested on: A. kurodai FaNaC F188Y; test: Two-electrode voltage clamp, conventional mutant F188Y; assay type: cell-based, Aplysia kurodai
Excerpt: as §1, with “(Qiagen). […]” for “(Qiagen).”
as §7, §9

[16] = tested on: A. kurodai FaNaC F453Phe; test: Two-electrode voltage clamp, nonsense suppression mutant F453Phe; assay type: cell-based, Aplysia kurodai
Excerpt: as §1, §6, §7, §8

[17] = target: Aplysia kurodai FMRFa-gated sodium channel (FaNaC), wild type (Aplysia kurodai)
[18] = target: Malacoceros fuliginosus FaNaC1, wild type (Malacoceros fuliginosus); remark: listed apart in the source
[19] = X. laevis oocytes, -80 mV, mean ± SE

Question: Which EC50 of current activation, two-electrode voltage clamp, X. laevis oocytes [1] does the source give for (F3-Phe)MRFa (peptide) here?
Answer: Its EC50 of current activation, two-electrode voltage clamp, X. laevis oocytes is 0.011 µM.

Question: With “AMRFa: synthetic FMRFa analog, F1 replaced with smaller hydrophobic side chain (A) (AMRF-NH2)” as the molecule, how does the “peptide potency/activity compared to FMRFa (in words)” value ([2]; X. laevis oocytes) read?
Answer: The value was “activated no current”.

Question: What about the “peptide potency/activity compared to FMRFa (in words)” value ([3]; X. laevis oocytes) of the same molecule?
Answer: The value was “similarly to FMRFa”.

Question: With “Ac-FMRFa: FMRFa with N-terminal acetylation” as the molecule, how does the “peptide potency/activity compared to FMRFa (in words)” value ([2]; X. laevis oocytes) read?
Answer: The value was “little effect”.

Question: And the “peptide potency/activity compared to FMRFa (in words)” value ([3]; X. laevis oocytes)?
Answer: The value was “increased potency”.

Question: What does the source list for “FKRFa: FMRFa analog, M2 replaced with lysine (FKRF-NH2)”?
Answer: peptide potency/activity compared to FMRFa (in words) ([2]; X. laevis oocytes): no activity; peptide potency/activity compared to FMRFa (in words) ([3]; X. laevis oocytes): no significant effect on potency

Question: What does the source list for “FMKFa: FMRFa analog, R3 replaced with lysine; also a native peptide (FMKF-NH2)”?
Answer: sensitivity to native peptides (in words) [4]: sensitive; activation by peptide (in words) ([4]; various mollusk FaNaCs ref 7,9): activated

Question: With “FMQFa: FMRFa analog, R3 replaced with glutamine (FMQF-NH2)” as the molecule, how does the “currents at 100 μM peptide” value ([2]; 100 μM) read?
Answer: Its value is “no currents”.

Question: And the “peptide potency/activity compared to FMRFa (in words)” value ([2]; X. laevis oocytes)?
Answer: The value was “total reduction in potency”.

Question: With “FMRAa: FMRFa analog, F4 replaced with alanine (FMRA-NH2)” as the molecule, how does the “peptide potency/activity compared to FMRFa (in words)” value ([3]; X. laevis oocytes) read?
Answer: The value was “abolished peptide potency completely”.

Question: For “FMRF-OMe: FMRF with C-terminal O-methylester”, which “peptide potency/activity compared to FMRFa (in words)” value ([3]; X. laevis oocytes) is on record?
Answer: Its value is “drastically reduced activation”.

Question: Which “peptide potency/activity compared to FMRFa (in words)” value ([3]; X. laevis oocytes) does the source give for “FMRVa: FMRFa analog, F4 replaced with valine (FMRV-NH2)” here?
Answer: Its value is “did not significantly affect peptide potency”.

Question: With “FVRFa: FMRFa analog, M2 replaced with valine (FVRF-NH2)” as the molecule, how does the “peptide potency/activity compared to FMRFa (in words)” value ([2]; X. laevis oocytes) read?
Answer: Its value is “significantly less potent than FMRFa”.

Question: What about the “peptide potency/activity compared to FMRFa (in words)” value ([3]; X. laevis oocytes) of the same molecule?
Answer: Its value is “no significant effect on potency”.

Question: For H-Phe-Met-Arg-Phe-NH2 [FMRFa], which “FMRFa sensitivity (in words)” value [5] is on record?
Answer: The value was “relatively little effect on FMRFa sensitivity”.

Question: What about the EC50 [2, 19] of the same molecule?
Answer: Its EC50 is 5.48 µM and 5.5 µM.

Question: What about the “FMRFa sensitivity (in words)” value [6] of the same molecule?
Answer: Its value is “relatively little effect on FMRFa sensitivity”.

Question: And the “binding of native peptides (in words)” value [7]?
Answer: Its value is “bind”.

Question: And the EC50 [8]?
Answer: Its EC50 is 3 to 5 µM.

Question: What about the “sensitivity to FMRFa (in words)” value [9] of the same molecule?
Answer: The value was “reduced sensitivity to FMRFa”.

Question: What about the “response to FMRFa (in words)” value [10] of the same molecule?
Answer: Its value is “little or no response”.

Question: What about the “response to FMRFa (in words)” value [11] of the same molecule?
Answer: The value was “little or no response”.

Question: What about the “FMRFa-gated currents (in words)” value [12] of the same molecule?
Answer: Its value is “no FMRFa-gated currents”.

Question: What about the “FMRFa activation/potency (in words)” value [13] of the same molecule?
Answer: Its value is “decreased FMRFa potency; also recorded: activated by FMRFa at micromolar concentrations”.

Question: And the “sensitivity to native peptides (in words)” value [4]?
Answer: The value was “sensitive”.

Question: And the “FMRFa sensitivity (in words)” value [14]?
Answer: The value was “abolished FMRFa sensitivity”.

Question: What about the EC50 [3, 19] of the same molecule?
Answer: Its EC50 is 0.35 ± 0.06 µM.

Question: What about the “FMRFa activation (in words)” value [15] of the same molecule?
Answer: The value was “activated by FMRFa at micromolar concentrations”.

Question: What about the “FMRFa potency compared to regular WT (in words)” value [16] of the same molecule?
Answer: Its value is “decreased FMRFa potency”.

Question: What does the source list for “LMRFa: synthetic FMRFa analog, F1 replaced with smaller hydrophobic side chain (L) (LMRF-NH2)”?
Answer: peptide potency/activity compared to FMRFa (in words) ([2]; X. laevis oocytes): activated no current; deactivation after peptide application [3]: especially slow; peptide potency/activity compared to FMRFa (in words) ([3]; X. laevis oocytes): similarly to FMRFa

Question: For “SGFMRFa: FMRFa with N-terminal serine-glycine insertion (SGFMRF-NH2)”, which “peptide potency/activity compared to FMRFa (in words)” value ([2]; X. laevis oocytes) is on record?
Answer: The value was “abolished activity”.

Question: What about the “peptide potency/activity compared to FMRFa (in words)” value ([3]; X. laevis oocytes) of the same molecule?
Answer: Its value is “no effect”.

Question: For H-FMRF-NH2 [H-Phe-Met-Arg-Phe-NH2 (FMRFamide)], which EC50 of current activation, two-electrode voltage clamp, X. laevis oocytes [17] is on record?
Answer: The EC50 of current activation, two-electrode voltage clamp, X. laevis oocytes was 5.48 µM.

Question: What about the EC50 of current activation, two-electrode voltage clamp, X. laevis oocytes [18] of the same molecule?
Answer: The EC50 of current activation, two-electrode voltage clamp, X. laevis oocytes was 0.35 µM.
